# From patent US10253000B2, “Pyridazin-3(2H)-one derivatives as monoamine oxidase selective isoform B inhibitors” (UNIVERSIDADE DE VIGO, priority 2014, dated 2019)
# Where two headings read alike, the source gives them in different places. Marks after values point to notes of the source that are not given here.
# Legend:
# human recombinant MAO-A = biological target: T1, human recombinant MAO-A (Homo sapiens, UniProt P21397); experiment: Determination of MAO isoforms activity (Amplex Red, p-tyramine), MAO-A; type: biochemical; details: read-out: IC50 hMAO-A
# T1 construct: purchased Sigma-Aldrich Química S.A., Alcobendas, Spain; host or cells: insect cells (BTI-TN-5B1-4) infected with recombinant baculovirus
# T1 sequence (P21397 1-527): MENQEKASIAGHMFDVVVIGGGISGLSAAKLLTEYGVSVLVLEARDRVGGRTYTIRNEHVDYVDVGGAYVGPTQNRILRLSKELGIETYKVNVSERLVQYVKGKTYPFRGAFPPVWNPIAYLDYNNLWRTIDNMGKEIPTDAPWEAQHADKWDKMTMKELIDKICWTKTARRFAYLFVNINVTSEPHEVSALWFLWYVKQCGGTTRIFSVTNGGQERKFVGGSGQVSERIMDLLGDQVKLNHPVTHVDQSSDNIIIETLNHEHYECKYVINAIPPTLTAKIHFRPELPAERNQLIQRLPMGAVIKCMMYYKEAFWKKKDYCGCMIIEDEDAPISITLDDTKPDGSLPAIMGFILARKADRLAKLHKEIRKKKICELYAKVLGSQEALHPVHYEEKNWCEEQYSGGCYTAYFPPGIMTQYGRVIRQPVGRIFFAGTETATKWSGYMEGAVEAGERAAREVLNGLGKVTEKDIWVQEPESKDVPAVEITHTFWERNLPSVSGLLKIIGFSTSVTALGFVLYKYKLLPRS
# human recombinant MAO-B = biological target: T2, human recombinant MAO-B (Homo sapiens, UniProt P27338); experiment: Determination of MAO isoforms activity (Amplex Red, p-tyramine), MAO-B; type: biochemical; details: for S.I. Selectivity index hMAO-B = IC50 (hMAO-A)/IC50 (hMAO-B): bounds calculated taking the highest concentration studied (100 μM or 1 mM) as IC50; for IC50: read-out: IC50 hMAO-B
# T2 construct: purchased Sigma-Aldrich Química S.A., Alcobendas, Spain; host or cells: insect cells (BTI-TN-5B1-4) infected with recombinant baculovirus
# T2 sequence (P27338 1-520): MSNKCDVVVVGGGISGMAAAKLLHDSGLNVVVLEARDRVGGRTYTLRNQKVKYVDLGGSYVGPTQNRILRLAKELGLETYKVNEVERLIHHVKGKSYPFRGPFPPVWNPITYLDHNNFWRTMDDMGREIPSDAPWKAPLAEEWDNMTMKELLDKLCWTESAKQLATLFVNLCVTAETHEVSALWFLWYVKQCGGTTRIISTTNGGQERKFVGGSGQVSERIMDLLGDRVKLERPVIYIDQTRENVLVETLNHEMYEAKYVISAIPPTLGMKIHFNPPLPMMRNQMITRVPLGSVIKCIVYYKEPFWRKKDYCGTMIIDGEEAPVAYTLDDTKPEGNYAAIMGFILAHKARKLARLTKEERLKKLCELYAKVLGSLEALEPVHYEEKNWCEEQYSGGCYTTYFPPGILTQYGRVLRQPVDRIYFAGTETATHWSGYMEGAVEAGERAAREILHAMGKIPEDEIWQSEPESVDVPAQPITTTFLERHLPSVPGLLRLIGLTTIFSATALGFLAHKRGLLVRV
# [1] = human recombinant MAO-B, p-tyramine 1 mM, mean ± spread of 5 experiments
SMILES,IC50 (human recombinant MAO-A),S.I. Selectivity index hMAO-B = IC50 (hMAO-A)/IC50 (hMAO-B) (human recombinant MAO-B),IC50 (human recombinant MAO-B; [1]),IC50 (human recombinant MAO-B)
"O=c1c(CSC(=S)N2CCCC2)ccnn1Cc1ccccc1 [IIIc3, 1-benzyl-6-oxo-1,6-dihydropyridazin-5-ylmethyl Pyrrolidin-1-ylcarbodithioate]",> 100 µM,>2.9^b,34 ± 2.26 µM,
"O=c1c(CSC(=S)N2CCOCC2)ccnn1Cc1ccccc1 [IIIc5, 1-benzyl-6-oxo-1,6-dihydropyridazin-5-ylmethyl Morpholin-4-ylcarbodithioate]",> 100 µM,>4.2^b,24.1 ± 1.6 µM,
"O=C(c1ccccc1)N1CCN(C(=S)SCc2ccnn(Cc3ccccc3)c2=O)CC1 [IIIc11, 1-benzyl-6-oxo-1,6-dihydropyridazin-5-ylmethyl 4-benzoylpiperazin-1-ylcarbodithioate]",> 100 µM,,,> 100 µM
"CCN(CC)C(=S)SCc1cnn(Cc2ccccc2)c(=O)c1 [IIc2, 1-benzyl-6-oxo-1,6-dihydropyridazin-4-ylmethyl N,N-diethyldithiocarbamate]",> 100 µM,>2.3^b,44.2 ± 2.95 µM,
"O=c1cc(CSC(=S)N2CCCC2)cnn1Cc1ccccc1 [IIc3, 1-benzyl-6-oxo-1,6-dihydropyridazin-4-ylmethyl Pyrrolidin-1-ylcarbodithioate]",,10.3,9.68 ± 0.65 µM,
"O=c1cc(CSC(=S)N2CCCCC2)cnn1Cc1ccccc1 [IIc4, 1-benzyl-6-oxo-1,6-dihydropyridazin-4-ylmethyl Piperidin-1-ylcarbodithioate]",> 100 µM,>15^b,6.71 ± 0.45 µM,
"O=c1cc(CSC(=S)N2CCOCC2)cnn1Cc1ccccc1 [IIc5, 1-benzyl-6-oxo-1,6-dihydropyridazin-4-ylmethyl Morpholin-4-ylcarbodithioate]",> 100 µM,,,
"O=C(c1ccccc1)N1CCN(C(=S)SCc2cnn(Cc3ccccc3)c(=O)c2)CC1 [IIc11, 1-benzyl-6-oxo-1,6-dihydropyridazin-4-ylmethyl 4-benzoylpiperazin-1-ylcarbodithioate]",> 100 µM,,,> 100 µM
"Cn1nc(CCSC(=S)N2CCCCC2)ccc1=O [Ia15, 2-(1-methyl-6-oxo-1,6-dihydropyridazin-3-yl)ethyl Piperidin-1-ylcarbodithioate]",> 100 µM,>8.4^b,11.9 ± 0.53 µM,
"Cn1nc(CCCSC(=S)N2CCCC2)ccc1=O [Ia25, 3-(1-methyl-6-oxo-1,6-dihydropyridazin-3-yl)propyl Pyrrolidin-1-ylcarbodithioate]",> 100 µM,>1.5^b,66.5 ± 4.43 µM,
"Cc1cc(=O)n(C)nc1CSC(=S)N1CCCC1 [Id3, 1,4-dimethyl-6-oxo-1,6-dihydropyridazin-3-ylmethyl Pyrrolidin-1-ylcarbodithioate]",> 100 µM,,,> 1000 µM
"Cc1cc(=O)n(C)nc1CSC(=S)N1CCCCC1 [Id4, 1,4-dimethyl-6-oxo-1,6-dihydropyridazin-3-ylmethyl Piperidin-1-ylcarbodithioate]",,13.4,7.48 ± 0.34 µM,
"Cc1cc(=O)n(C)nc1CSC(=S)N1CCOCC1 [Id5, 1,4-dimethyl-6-oxo-1,6-dihydropyridazin-3-ylmethyl morpholin-4-ylcarbodithioate]",,2.6,38.6 ± 1.74 µM,
"Cc1cc(=O)n(C)nc1CSC(=S)N1CCN(C(=O)c2ccccc2)CC1 [Id11, 1,4-dimethyl-6-oxo-1,6-dihydropyridazin-3-ylmethyl 4-benzoylpiperazin-1-ylcarbodithioate]",,2.2,44.5 ± 2 µM,
